Measured values: PMC11122761, “Synthetic ShK-like Peptide from the Jellyfish Nemopilema nomurai Has Human Voltage-Gated Potassium-Channel-Blocking Activity” (Marine Drugs, 2024)
“Also recorded” adds a separate entry of the source. Where no end group is shown, it is not given here.

Legend:
hKv1.3 = test: Whole-cell patch-clamp current recording, hKv1.3; format: cell-based, human; conditions: for hKv1.3 IV curve, p vs. 0 nM: IV curves −130 to 50 mV (Figure 3), two-way ANOVA; for hKv1.3 IV curve, p vs. 0 nM / reduction of hKv1.3 current amplitude at 50 mV, p vs. 0 nM: Dunnett's post hoc; for reduction of hKv1.3 current amplitude at 50 mV, p vs. 0 nM: one-way ANOVA; for current of hKv1.3 (current amplitude), effect of treatment / inhibition of the current amplitudes of hKv1.3 by NnK-1 analogs: 0.01, 1, 100, or 500 nM; for current of hKv1.3 (current amplitude), effect of treatment: HEK293 cells expressing hKv1.3, bath-applied for 2 min, whole-cell, holding potential –70 mV; for hKv1.3 IV curves, two-way ANOVA group effect p: group effect, 0, 0.01, 1, 100, or 500 nM, Figure 3 IV curves; for hKv1.3 current amplitude at 50 mV, one-way ANOVA p: overall, 0, 0.01, 1, 100, or 500 nM; for inhibition of the current amplitudes of hKv1.3 by NnK-1 analogs: Figure 6
Method: (§1) The amplification was performed in the Veriti™ 96-Well Fast Thermal Cycler (Applied Biosystems, Waltham, MA, USA) with a thermal cycling program consisting of predenaturation for 3 min at 95 °C, followed by 30 cycles of denaturation for 30 s at 95 °C, annealing for 30 s at 58 °C, and extension for 30 s at 72 °C, with a final extension for 3 min at 72 °C. A Human cDNA Clone Set (OriGene Technologies GmbH, Herford, Germany) was used as the template. A MCS (multi-cloning site) digested from the pAAV-MCS vector (Cell Biolabs, San Diego, CA, USA) was ligated into the pIRES2-EGFP vector (Clontech Laboratories, Mountain View, CA, USA) to form pAAV–CMV–IRES2–EGFP. The PCR products were ligated into the pAAV–CMV–IRES2–EGFP vector at the NheI and SalI sites to construct pAAV–CMV–hKv–IRES2–EGFP.
(§2) The HEK293 cells were transfected with pAAV–CMV–hKv–IRES2–EGFP (2 μg) using Effectene Transfection Reagent (Qiagen, Hilden, Germany) for 12–18 h. The transfectants (1 × 10^5/mL) were seeded onto 12 mm coverslips coated with 0.01 mg/mL poly-D-lysine for 2–3 h.
The HEK293 cells expressing AAV–CMV–hKv–IRES2–EGFP were reseeded onto coverslips. The HEK293 transfectants were monitored for their green fluorescence and used as patch cells. Patch pipettes were filled with an internal solution (140 mM potassium gluconate, 10 mM HEPES, 0.2 mM ATP, and 0.06 mM GTP). An external solution [130 mM NaCl, 10 mM HEPES, 3 mM KCl, 1.5 mM D-glucose, 10 mM sucrose, […], 1.5 mM MgCl2·6H2O, osmolarity 320 mmol/kg (pH 7.2)] was used as the basic buffer. Psora4, ShK, or NnK-1 (0, 0.01, 1, 100, or 500 nM) was bath-applied for 2 min to block the currents recorded from the HEK293 cells expressing AAV–CMV–hKv–IRES2–EGFP with voltages ranging from −130 to 50 mV in the increments of 20 mV and 0.6 s. Whole-cell patch recordings from […] under voltage-clamp conditions (holding potential of –70 mV) were made with the Multiclamp 700 B microelectrode amplifier (Automate Scientific Inc., Berkeley, CA, USA) digitized with a Digidata 1322 A data acquisition system (Molecular Devices Limited, San Jose, CA, USA). In this study, all electrophysiological data from the cultured cells were obtained at a temperature of 23–25 °C and maintained with the CL-100 Temperature Controller (Warner Instruments LLC, Hamden, CT, USA).

hKv1.1 = test: Whole-cell patch-clamp current recording, hKv1.1; format: cell-based, human; conditions: HEK293, bath-applied 2 min
Method: as §1
(§3) The HEK293 cells were transfected with pAAV–CMV–hKv–IRES2–EGFP (2 μg) using Effectene Transfection Reagent (Qiagen, Hilden, Germany) for 12–18 h. […]
(§4) The HEK293 cells expressing AAV–CMV–hKv–IRES2–EGFP were reseeded onto coverslips. The HEK293 transfectants were monitored for their green fluorescence and used as patch cells. […] Psora4, ShK, or NnK-1 (0, 0.01, 1, 100, or 500 nM) was bath-applied for 2 min to block the currents recorded from the HEK293 cells expressing AAV–CMV–hKv–IRES2–EGFP with voltages ranging from −130 to 50 mV in the increments of 20 mV and 0.6 s. […]

hKv1.4 = test: Whole-cell patch-clamp current recording, hKv1.4; format: cell-based, human
Method: as §1, §2
(§5) The HEK293 cells expressing AAV–CMV–hKv–IRES2–EGFP were reseeded onto coverslips. The HEK293 transfectants were monitored for their green fluorescence and used as patch cells. Patch pipettes were filled with an internal solution (140 mM potassium gluconate, 10 mM HEPES, 0.2 mM ATP, and 0.06 mM GTP). An external solution [130 mM NaCl, 10 mM HEPES, 3 mM KCl, 1.5 mM D-glucose, 10 mM sucrose, […], 1.5 mM MgCl2·6H2O, osmolarity 320 mmol/kg (pH 7.2)] was used as the basic buffer. Psora4, ShK, or NnK-1 (0, 0.01, 1, 100, or 500 nM) was bath-applied for 2 min to block the currents recorded from the HEK293 cells expressing AAV–CMV–hKv–IRES2–EGFP with voltages ranging from −130 to 50 mV in the increments of 20 mV and 0.6 s. […]

hKv1.5 = test: Whole-cell patch-clamp current recording, hKv1.5; format: cell-based, human
Method: as §1, §2, §5

hKv3.1 = test: Whole-cell patch-clamp current recording, hKv3.1; format: cell-based, human; conditions: 100 nM NnK-1; Figure 4E; HEK293, bath-applied 2 min, 23–25 °C
Method: as §1, §3, §4

hKv11.1 = test: Whole-cell patch-clamp current recording, hKv11.1; format: cell-based, human; conditions: 100 nM NnK-1; Figure 4F; HEK293, bath-applied 2 min, 23–25 °C
Method: as §1, §3, §4

[1] = tested on: untransfected HEK293 cells; test: Cell viability assay (CCK-8), untransfected HEK293 cells; format: cell-based; conditions: 1 h treatment, 0.01, 1, 100, and 500 nM; CCK-8, absorbance 450 nm
Method: (§6) The cell viability of the HEK293 cells was assessed with a Cell Counting Kit-8 (CCK-8, DJDB4000X, Dojindo laboratory, Kumanoto, Japan). Both the HEK293 cells and HEK293 cells expressing AAV–CMV–hKv–IRES2–EGFP were seeded onto a 96-well plate (1 × 10^4 cells/well). After 24 h of incubation, ShK, NnK-1, NnK-1 mu, and NnK-1 w/o d (0, 0.01, 1, 100, or 500 nM) were used to treat the cells in each well for 1 h. After that, a dye solution was used to treat the cells for 2 h, and the absorbance was measured at 450 nm using a microplate reader (GloMax explorer multimode, Promega, Madison, WI, USA).

[2] = tested on: hKv1.3-transfected HEK293 cells; test: Cell viability assay (CCK-8), hKv1.3-transfected HEK293 cells; format: cell-based; conditions: 1 h treatment, 0.01, 1, 100, and 500 nM; CCK-8, absorbance 450 nm
Method: as §2, §6

[3] = Maintenance of disulfide bonds of synthetic NnK-1 in solution; format: physicochemical; conditions: dissolved in a solution; inferred from comparison with NnK-1 w/o d on hKv1.3
Text: Another peptide, NnK-1 w/o d, which had the same amino acid residues but without three pairs of disulfide bonds, was also synthesized to test whether the disulfide bonds were still intact in the synthetic NnK-1 after being dissolved in a solution.

[4] = 0.01 nM, HEK293, bath-applied 2 min, pH 7.2, 23–25 °C
[5] = 1 nM, HEK293, bath-applied 2 min, pH 7.2, 23–25 °C
[6] = 1 nM, bar graph at 50 mV (Figure 3), HEK293, bath-applied 2 min, pH 7.2, 23–25 °C
[7] = 100 nM, HEK293, bath-applied 2 min, pH 7.2, 23–25 °C
[8] = 100 nM, bar graph at 50 mV (Figure 3), HEK293, bath-applied 2 min, pH 7.2, 23–25 °C
[9] = 500 nM, HEK293, bath-applied 2 min, pH 7.2, 23–25 °C
[10] = 500 nM, bar graph at 50 mV (Figure 3), HEK293, bath-applied 2 min, pH 7.2, 23–25 °C
[11] = 100 nM, HEK293, bath-applied 2 min, 23–25 °C (Figure 4)
[12] = electrophysiological assay, summary statement
[13] = HEK293, bath-applied 2 min, 23–25 °C

Molecule | hKv1.3 IV curve, p vs. 0 nM (hKv1.3; [4]) | hKv1.3 IV curve, p vs. 0 nM (hKv1.3; [5]) | reduction of hKv1.3 current amplitude at 50 mV, p vs. 0 nM (hKv1.3; [6]) | hKv1.3 IV curve, p vs. 0 nM (hKv1.3; [7]) | reduction of hKv1.3 current amplitude at 50 mV, p vs. 0 nM (hKv1.3; [8]) | hKv1.3 IV curve, p vs. 0 nM (hKv1.3; [9]) | reduction of hKv1.3 current amplitude at 50 mV, p vs. 0 nM (hKv1.3; [10]) | current of hKv1.3 (current amplitude), effect of treatment (hKv1.3; pH 7.2, 23–25 °C) | hKv1.3 IV curves, two-way ANOVA group effect p (hKv1.3) | hKv1.3 current amplitude at 50 mV, one-way ANOVA p (hKv1.3; Figure 3 bar graphs) | hKv1.3 current amplitude at 50 mV, one-way ANOVA p (hKv1.3; Figure 6 bar graphs) | inhibition of the current amplitudes of hKv1.3 by NnK-1 analogs (hKv1.3; [13]) | other results
O=c1ccc2c(OCCCCc3ccccc3)c3ccoc3cc2o1 [Psora4, reference compound] | < 0.05 | < 0.0001 | < 0.01 | < 0.0001 | < 0.001 | < 0.0001 | < 0.0001 | significantly reduced | < 0.0001 | < 0.0001 | – | – | –
CKDHHTYGVYCKDWKSSGECKKNPKGMRHFCRKTCGFC (disulfide (positions not given here)) [NnK-1, fifth ShK-like peptide of the Nemopilema nomurai NnK-1 precursor, chemically synthesized] | < 0.01 | < 0.0001 | < 0.0001 | < 0.0001 | < 0.0001 | < 0.0001 | < 0.0001 | significantly reduced | < 0.0001 | < 0.0001 | < 0.05 | – | reduction of hKv1.3 current amplitude at 50 mV, p vs. 0 nM (hKv1.3; 0.01 nM, bar graph at 50 mV (Figure 3), HEK293, bath-applied 2 min, pH 7.2, 23–25 °C): < 0.05; hKv1.3 IV curve, two-way ANOVA group effect p (hKv1.3; 100 nM NnK-1, Figure 4B, HEK293, bath-applied 2 min, 23–25 °C): < 0.05; reduction of hKv1.3 current amplitude at 50 mV, p vs. 0 nM (hKv1.3; 100 nM, Figure 6B, HEK293, bath-applied 2 min): < 0.05; inhibition of the current amplitude of hKv1.3 (hKv1.3; [11]): significantly inhibited; reduction of hKv1.3 current amplitude at 50 mV, p vs. 0 nM (hKv1.3; 500 nM, Figure 6B, HEK293, bath-applied 2 min): < 0.05; channel block, hKv1.3 (hKv1.3; [12]): effective blocker; also recorded: Kv1.3-blocking activity; hKv1.1 IV curve, two-way ANOVA group effect p (hKv1.1; 100 nM NnK-1, Figure 4A, 23–25 °C): 0.52; inhibition of the current amplitude of hKv1.1 (hKv1.1; 100 nM, 23–25 °C (Figure 4)): not that of hKv1.1, hKv3.1, and hKv.11.1; hKv1.4 IV curve, two-way ANOVA group effect p (hKv1.4; 100 nM NnK-1, Figure 4C, HEK293, bath-applied 2 min, 23–25 °C): < 0.01; inhibition of the current amplitude of hKv1.4 (hKv1.4; [11]): significantly inhibited; channel block, hKv1.4 (hKv1.4; [12]): effective blocker; hKv1.5 IV curve, two-way ANOVA group effect p (hKv1.5; 100 nM NnK-1, Figure 4D, HEK293, bath-applied 2 min, 23–25 °C): < 0.001; inhibition of the current amplitude of hKv1.5 (hKv1.5; [11]): significantly inhibited; channel block, hKv1.5 (hKv1.5; [12]): effective blocker; hKv3.1 IV curve, two-way ANOVA group effect p (hKv3.1): 0.46; hKv11.1 IV curve, two-way ANOVA group effect p (hKv11.1): 0.39; cell viability, untransfected HEK293 [1]: no difference; cell viability, hKv1.3-transfected HEK293 [2]: no difference; disulfide bonds in solution [3]: maintained even when dissolved in a solution
CKDHHTYGVYCKDWKSSGECKKNPKGMRHFCRKTCGFC [NnK-1 w/o d, same amino acid residues as NnK-1 but without three pairs of disulfide bonds] | – | – | – | – | – | – | – | – | – | – | 0.28 | neither NnK-1 mu nor NnK-1 w/o d inhibited the current amplitudes of hKv1.3 | –
CKEHHTYGVYCKDWKSSGECKKNPRGMRHFCRKMCGFC (disulfide (positions not given here)) [NnK-1 mu, NnK-1 with three amino acids substituted with 3Glu, 25Arg, and 34Met] | – | – | – | – | – | – | – | – | – | – | 0.89 | neither NnK-1 mu nor NnK-1 w/o d inhibited the current amplitudes of hKv1.3 | –
